Experimental data taken from PubChem BioAssay AID1963858 (Molecular Pharmacology Branch, DTP, NCI, 2024).

Test system: HOP-62 multicell spheroids with HUVEC/MSC, viability
Assay: Anticancer human tumor HOP-62 cell line growth inhibition [KRAS2];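 also: viability read after a week of compound exposure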;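 as to viability, T/C: 100% = DMSO vehicle-treated spheroids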
Details: for IC50: curve of first compound; for viability, T/C: stronger effect = lower value
From the text: Multicellular complex tumor spheroid response to RAS pathway inhibitors in combination with a targeted agents in patient-derived cell lines with oncogenic KRAS variants from multiple cancer types
A high-throughput screen of multi-cell type tumor spheroids was designed to identify active combinations of targeted small molecules and KRAS pathway inhibitors. Complex spheroids include a stromal component modeled by human endothelial cells (HUVEC) and fibroblasts modeled by human mesenchymal stem cells (MSCs). The concentration ranges selected for each drug and investigational agent were based upon clinically achievable concentrations if the clinical Cmax of the agent was known.
Compounds. The drugs and investigational agents: BI-3406 (NSC825286), BAY-293 (NSC824723), batoprotafib (TNO155; NSC825523), sotorasib (AMG 510; NSC818433), MRTX1257 (NSC819558), elimusertib (BAY 1895344; NSC800525), molibresib (GSK525762; NSC774829), temuterkib (LY3214996; NSC803410), venetoclax (NSC766270), alisertib (NSC759677), olaparib (NSC753686), talazoparib (NSC767125), erdafitinib (NSC781556), ipatasertib (NSC767898), cabozantinib (NSC761068), nintedanib (NSC756659), abemaciclib (NSC768073), docetaxel (NSC628503), trametinib (NSC758246), and sapanisertib (NSC764658) were obtained from the National Cancer Institute (NCI) Developmental Therapeutics Program Chemical Repository. The FDA-approved anticancer drug set is available from the Developmental Therapeutics Program. […] The stock solutions were prepared in dimethyl sulfoxide (DMSO, Sigma-Aldrich, St. Louis, MO, cat. D2650) at 800-fold the tested concentration and stored at -70 degrees C prior to their use. All drugs and investigational agents were tested over a range starting from a high concentration at or near the clinical Cmax and decreasing in half-log increments. If the clinical Cmax for an agent had not been determined, the highest concentration tested was 10 microM.
Cell Culture. All cells were maintained in an incubator at 37 degrees C and 5% CO2 with 95% humidity. The PDC lines were cultured according to standard operating procedures established by the NCI PDMR (https://pdmr.cancer.gov/sops/default.htm). Briefly, all PDCs were thawed and cultured in Matrigel-coated flasks prepared with a working solution of 1X Ham's F-12 nutrient mix, without supplementation (Invitrogen, Waltham, MA, cat. 11765054), 100 U/mL penicillin-streptomycin (Invitrogen, cat. 15140122), and 2.5% Matrigel (Corning Inc., Corning, NY, cat. 354248) for the first three passages. All PDCs were cultured in complete DMEM/F-12 media containing advanced DMEM/F-12 (Invitrogen, cat. 12634028), 4.9% defined fetal bovine serum, heat inactivated (HyClone Laboratories Inc., Logan, UT, cat. SH30070.03HI), 389 ng/mL hydrocortisone (Sigma-Aldrich, cat. H4001), 9.7 ng/mL human EGF recombinant protein (Invitrogen, cat. PHG0313), 23.4 microg/mL adenine (Sigma-Aldrich, cat. A2786), 97.3 U/mL penicillin-streptomycin (Invitrogen, cat. 15140122), 1.9 mM L-glutamine (Invitrogen, cat. 25030081), and 9.7 microM Y-27632 dihydrochloride (Tocris Bioscience, Bristol, United Kingdom, cat. 1254). The PDCs were cultured in complete DMEM/F12 media without 9.7 microM Y-27632 dihydrochloride for at least two passages prior to the screen. The established cell line HOP-62 was cultured in RPMI 1640 medium, HEPES (Invitrogen, cat. 22400105) with 10% defined fetal bovine serum (HyClone Laboratories Inc., cat. SH30070.03) and 2 mM L-glutamine (Invitrogen, cat. 25030081). The pooled donor HUVEC were cultured in endothelial cell growth medium 2 (PromoCell, Heidelberg, Germany, cat. C-22011) and the hMSC were cultured in mesenchymal stem cell growth medium 2 (PromoCell, cat. C-28009). For all experiments, HUVEC and hMSC were used at passages </=5, while the malignant cell lines were used at passages </=15. […]

[1] = second compound 0.1 µM, first compound 0.0001 µM
[2] = second compound 0.1 µM, first compound 0.000316 µM
[3] = second compound 0.1 µM, first compound 0.001 µM
[4] = second compound 0.1 µM, first compound 0.00316 µM
[5] = second compound 0.1 µM, first compound 0.01 µM
[6] = second compound 0.1 µM, first compound 0.0316 µM
[7] = second compound 0.316 µM, first compound 0.0001 µM
[8] = second compound 0.316 µM, first compound 0.000316 µM
[9] = second compound 0.316 µM, first compound 0.001 µM
[10] = second compound 0.316 µM, first compound 0.00316 µM
[11] = second compound 0.316 µM, first compound 0.01 µM
[12] = second compound 0.316 µM, first compound 0.0316 µM
[13] = second compound 1 µM, first compound 0.0001 µM
[14] = second compound 1 µM, first compound 0.000316 µM
[15] = second compound 1 µM, first compound 0.001 µM
[16] = second compound 1 µM, first compound 0.00316 µM
[17] = second compound 1 µM, first compound 0.01 µM
[18] = second compound 1 µM, first compound 0.0316 µM
[19] = second compound 3.16 µM, first compound 0.0001 µM
[20] = second compound 3.16 µM, first compound 0.000316 µM
[21] = second compound 3.16 µM, first compound 0.001 µM
[22] = second compound 3.16 µM, first compound 0.00316 µM
[23] = second compound 3.16 µM, first compound 0.01 µM
[24] = second compound 3.16 µM, first compound 0.0316 µM

With CC(=O)Nc1cccc(-n2c(=O)n(C3CC3)c(=O)c3c(Nc4ccc(I)cc4F)n(C)c(=O)c(C)c32)c1 + C=CC(=O)N1CCN(c2nc(OCC3CCCN3C)nc3c2CCN(c2cccc4cccc(C)c24)C3)CC1CC#N the IC50 (second compound 0.0316 µM) was 1.49 nM, the IC50 (second compound 0.1 µM) was 1.01 nM and the IC50 (second compound 0.316 µM) was 0.406 nM. For the same molecule, the IC50 (second compound 1 µM) was < 0.1 nM, the IC50 (second compound 3.16 µM) was < 0.1 nM and the viability, T/C (second compound 0.0316 µM, first compound 0.0001 µM) was 83.2%. It also gave a viability, T/C (second compound 0.0316 µM, first compound 0.000316 µM) of 75%, a viability, T/C (second compound 0.0316 µM, first compound 0.001 µM) of 56.2% and a viability, T/C (second compound 0.0316 µM, first compound 0.00316 µM) of 38.9%. It also gave a viability, T/C (second compound 0.0316 µM, first compound 0.01 µM) of 23.4%, a viability, T/C (second compound 0.0316 µM, first compound 0.0316 µM) of 25.5% and a viability, T/C [1] of 64.8%. The viability, T/C [2] was 60.9%, the viability, T/C [3] was 50.5% and the viability, T/C [4] was 27.4%. The viability, T/C [5] was 19.4%, the viability, T/C [6] was 24.3% and the viability, T/C [7] was 52.3%. The viability, T/C [8] was 53.6%, the viability, T/C [9] was 40% and the viability, T/C [10] was 18.4%. The viability, T/C [11] was 15.7%, the viability, T/C [12] was 17.3% and the viability, T/C [13] was 34.4%. The viability, T/C [14] was 28.1%, the viability, T/C [15] was 18% and the viability, T/C [16] was 15%. The viability, T/C [17] was 12.5%, the viability, T/C [18] was 12.5% and the viability, T/C [19] was 18.2%. It also gave a viability, T/C [20] of 1.3%, a viability, T/C [21] of 9.7% and a viability, T/C [22] of 12.7%. It also gave a viability, T/C [23] of 1.72% and a viability, T/C [24] of 1.33%.
CC(=O)Nc1cccc(-n2c(=O)n(C3CC3)c(=O)c3c(Nc4ccc(I)cc4F)n(C)c(=O)c(C)c32)c1 + C=CC(=O)N1CCN(c2nc(=O)n(-c3c(C)ccnc3C(C)C)c3nc(-c4c(O)cccc4F)c(F)cc23)C(C)C1 showed an IC50 (second compound 0.1 µM) of 0.78 nM, an IC50 (second compound 0.316 µM) of 0.879 nM and an IC50 (second compound 1 µM) of 0.915 nM. The IC50 (second compound 3.16 µM) was 0.561 nM, the IC50 (second compound 10 µM) was 0.124 nM and the viability, T/C [1] was 78.5%. For the same molecule, the viability, T/C [2] was 61.2%, the viability, T/C [3] was 49.1% and the viability, T/C [4] was 29.7%. It also gave a viability, T/C [5] of 18.9%, a viability, T/C [6] of 14.7% and a viability, T/C [7] of 61.6%. For the same molecule, the viability, T/C [8] was 72.7%, the viability, T/C [9] was 43.8% and the viability, T/C [10] was 30.2%. For the same molecule, the viability, T/C [11] was 19.2%, the viability, T/C [12] was 16.8% and the viability, T/C [13] was 73.8%. It also gave a viability, T/C [14] of 61.7%, a viability, T/C [15] of 51% and a viability, T/C [16] of 32%. The viability, T/C [17] was 22.6%, the viability, T/C [18] was 18.5% and the viability, T/C [19] was 77.2%. For the same molecule, the viability, T/C [20] was 50.6%, the viability, T/C [21] was 44.5% and the viability, T/C [22] was 39.4%. The viability, T/C [23] was 26.2%, the viability, T/C [24] was 22.1% and the viability, T/C (second compound 10 µM, first compound 0.0001 µM) was 53.8%. The viability, T/C (second compound 10 µM, first compound 0.000316 µM) was 39%, the viability, T/C (second compound 10 µM, first compound 0.001 µM) was 43% and the viability, T/C (second compound 10 µM, first compound 0.00316 µM) was 34.8%. The viability, T/C (second compound 10 µM, first compound 0.01 µM) was 26.8% and the viability, T/C (second compound 10 µM, first compound 0.0316 µM) was 22.8%.
